The record followed here is patent US20240261412A1, “NUTRACEUTICAL COMPOSITION FOR DELIVERY OF HYDROPHILIC AND HYDROPHOBIC BIOACTIVE SUBSTANCES” (AKAY NATURAL INGREDIENTS PRIVATE LIMITED, priority 2021, published 2024).

The nature of data set [1]: Pharmacokinetics study of resveratrol, randomized double-blinded crossover, capsules and sachets. In kind it is in vivo, human. The conditions noted are these: for Tmax: human, plasma, read-out: Free Resveratrol Tmax. As to the method:
The bioavailability study in human subjects was carried out in two phases. In the first phase, identical hard shell gelatin capsules of either the trans-resveratrol powder formulation obtained in example 1 (RF-20) or unformulated resveratrol (U-tRES) containing 80 mg of trans-resveratrol were provided. […] The unformulated capsule contained 80±5 mg of trans-resveratrol with 98.2% purity isolated from Japanese Knotweed (U-tRES) by an ethanol/water extraction process and about 300 mg of microcrystalline cellulose as an excipient. In the second phase, the same dose of either the trans-resveratrol powder formulation or the unformulated resveratrol was administered in identical stick packs, each weighing about 3 g. Maltodextrin was used as an additive to make up the sachet packs to 3 g and the participants were asked to drink one sachet with about 240 mL of water. The double-blinded, placebo-controlled, randomized pharmacokinetic study was conducted using both capsules and sachets, to investigate the influence of delivery form on the relative bioavailability of trans-resveratrol from RF-20 and U-tRES. Each dose of either the resveratrol powder formulation or the unformulated resveratrol delivered 80±5 mg of trans-resveratrol. […] The blood samples were analysed by tandem mass spectrometry using QTRAP technology to detect, confirm and quantify ‘free’ resveratrol content in biomatrices.

Data set [2] in a line: In vitro release kinetics of trans-resveratrol formulation (USP dissolution apparatus). The settings on record: pH 6.5 and 2, FIG. 2. The format is physicochemical. On the procedure: Briefly, a 50 mg of RF-20 was dispersed in a 10 mL solution of appropriate pH and kept under constant stirring at 37±0.5° C. […] The amount of resveratrol content in the solution was determined by HPLC, with the help of a calibration curve. The experiment was performed in triplicate and the mean cumulative percentage of released resveratrol was calculated and plotted against time to follow the release kinetics.

Data set [3] in a line: Pharmacokinetics of fisetin powder formulation in healthy human subjects. In kind it is in vivo. The conditions noted are these: human plasma. On the procedure:
The bioavailability of the fisetin formulation was evaluated in healthy human subjects. It has been evaluated in a single dose, randomized, comparative, double-blinded crossover design was adopted to evaluate the difference in the bioavailability and pharmacokinetic parameters (Cmax, AUC, Tmax, and t½) of free (unconjugated) fisetin and geraldol following the oral administration of a fisetin formulation obtained in example 6 (FF-20) and unformulated fisetin (UF). The participants were provided with a capsule contained 500±25 mg of UF or FF-20. Around 50 mg of microcrystalline cellulose was present in each capsule as a flow-improving excipient. Following administration, blood samples (2 mL) were collected 5 min (t0) prior to oral dosing and subsequently at 0.5, 1, 2, 3, 5, 8, and 12 h after oral ingestion of UF or FF-20, using an indwelling venous cannula. Participants were provided with a standardized breakfast, lunch, snack, and dinner respectively at 1, 4, 8, and 12 h after dosing. Plasma was separated by centrifugation at 11,950×g for 10 min at 4° C. and stored for a maximum of two days at −20° C. for analysis. Fisetin and geraldol in plasma samples were extracted and subjected to UPLC-ESI-MS/MS analyses.

The nature of data set [4]: Pharmacokinetics of calcium ascorbate formulation in healthy volunteers. In kind it is in vivo, human. The conditions noted are these: single oral dose of 1000 mg. The text has this:
The relative bioavailability of the calcium ascorbate formulation obtained in Example 5 (FC+) with respect to the unformulated CAAS (UF-CAAS) powder with >98% purity was investigated in healthy volunteers.
The study was designed as a randomized, double-blinded, single dose study on healthy volunteers. Healthy volunteers (males and females) (n ¼14) aged 18 to 65 years having BMI between 18-25 kgm^−2 were enrolled for the study. Those who were having a history of gut disorders such as irritable bowel syndrome, ulcerative colitis, gastro-oesophageal reflux.
Selected participants were randomized into one of the three treatment arms consisting of three single dose treatments, with either formulated (tablets and capsules) or unformulated (UFCAAS) tablets.
Tablets and hard-shell two-piece hypromellose capsules of both FC+ and UF-CAAS were prepared in such a way that each tablet weighs about 1000±25 mg and each capsule contains 500±25 mg with similar content of CAAS. The study participants were orally administered with a single dose of 1000 mg tablet or capsule as per the study protocol, along with 200±10 mL of normal drinking water.
The quantification of calcium ascorbate in plasma was carried out by a validated HPLC method.

Data set [5] can be described thus: In vitro release kinetics of calcium ascorbate formulation. In kind it is physicochemical. The settings on record: stomach and intestinal pH conditions, FIG. 5. On the procedure: The in vitro release of ascorbic acid from the calcium ascorbate powder formulation was determined in water containing 1.6 mmol of the disodium salt of EDTA (ethylenediamine tetra acetic acid) at pH 2.0 and 6.8 using 0.1 M HCl and phosphate buffer respectively. 500 mg of calcium ascorbate powder formulation was mixed with 500 mL of EDTA solution to obtain the calcium ascorbate solution. The pH of the calcium ascorbate solution was adjusted and agitated at 100 rpm. About 1 mL of the solution was carefully withdrawn at regular intervals of 0, 1, 2, 4, 6, and 8 h and made up to 100 mL with water. The ascorbate content was then analysed by HPLC method. Analysis was performed in triplicate and the mean cumulative percentage of released ascorbate was calculated and plotted against time to study the in vitro release kinetics of CAAS from the fenugreek galactomannan matrix.

[6] abbreviates: human plasma, capsule, 80 mg trans-resveratrol per dose.
The mark [7] stands for this setting: human plasma, sachet, 80 mg trans-resveratrol per dose.

“And” between values parts separate entries of the source, which are not always exact repeats. Identical values can stand only once.

With `Oc1ccc(/C=C/c2cc(O)cc(O)c2)cc1` [U-tRES, trans-resveratrol], the Tmax in data set [1] (both sexes, oral, 80 mg, human plasma, capsule, 80 mg trans-resveratrol per dose) was 1.07 ± 0.26 h; in data set [1] (both sexes, oral, 80 mg, human plasma, sachet, 80 mg trans-resveratrol per dose) it was 1.21 ± 0.42 h. The half-life in data set [1] (both sexes, oral, human plasma, sachet, 80 mg trans-resveratrol per dose, read-out: Free Resveratrol t1/2 (converted)) was 1.58 ± 0.65 h. In addition, in data set [1] (free resveratrol, sachet), the “time after which plasma levels were undetectable” value was determined as 3 h. Moreover, the “free resveratrol AUC0-24 h” value in data set [1] (human plasma, capsule, 80 mg) worked out at 32.05 ± 9.97 ng·h/mL. Besides, the figures for the “Free Resveratrol AUC0-24” value in data set [1] (setting [6]) and in data set [1] (setting [7]) were 32.05 ng·h/mL and 31.93 ng·h/mL, respectively. For the same compound, the “Free Resveratrol Cmax” value was 16.34 ng/mL in data set [1] (setting [6]); 16.34 ± 5.67 ng/mL in data set [1] (human plasma, capsule, 80 mg trans-resveratrol per dose, listed as UtRES); 15.07 ± 5.10 ng/mL and 15.07 ng/mL in data set [1] (setting [7]). Further, in data set [1] (setting [6]), the “Free Resveratrol t1/2” value is given as 1.58 h. For the same compound, in data set [1] (n=16, both phases, 80±5 mg trans-resveratrol per dose), the “tolerability (side effects or adverse events)” value is listed as “without any significant side effects or adverse events”. Further, the “solubility in release medium” value in data set [2] was “insoluble”.
Take `O=c1c(O)c(-c2ccc(O)c(O)c2)oc2cc(O)ccc12` [UF, fisetin]: the Tmax in data set [3] (500 mg, single oral dose) turned out to be 0.88 h. The Cmax in data set [3] (500 mg, single oral dose, normalized for the higher fisetin intake in UF) was 9.97 ng/mL. For the same compound, the AUC(0-t) in data set [3] (500 mg, single oral dose, normalized for the higher fisetin intake in UF, read-out: Fisetin AUC0-12) stood at 12.7 ng·h/mL. In addition, in data set [3] (500 mg, single oral dose, read-out: Fisetin t1/2 (converted)), the half-life was 1.14 h. For the same compound, the “time after dosing up to which fisetin levels were quantifiable” value in data set [3] came out at 2 h.
Consider calcium ascorbate [UF-CAAS], for which, in data set [4], the “AUC (plasma ascorbate)” value is 311.4 ± 63.87^ μM · h/mL, the “MRT (plasma ascorbate)” value was 22.67 ± 2.02 h, the “T1/2 (plasma ascorbate)” value was 3.6 h and the “Tmax (plasma ascorbate)” value was 1 h. Also, in data set [4] (read-out: Cmax (plasma ascorbate)), the maximum concentration (Cmax) is 51.7 ± 21 µM. Besides, the “in vitro release behaviour” value in data set [5] was “sustained release”.
